# From patent US10729675B2, “Gossypol isatin schiff base compounds with antitumor activities and a method of preparing the same” (SHAANXI UNIVERSITY OF SCIENCE AND TECHNOLOGY, priority 2018, dated 2020)
# How the values were obtained:
# [1] = tested on: HepG2, A-549, SGC-7901 tumor cells; assay: anti-tumor activity test, MTT method, summary over the three cell lines tested; type: cell-based, human
# Protocol: (§1) The compounds of the present invention were subjected to tumor cell proliferation inhibition test, and conventional MTT method was used.
# (§2) Cell lines: human hepatoma cells (HepG2), human lung cancer cells (A-549), human gastric cancer cells (SGC-7901). The culture medium was DMEM+15% NBS+double antibody.
# (§3) Sample solution preparation: after dissolving with DMSO (Merck), PBS (−) was added to obtain 100 μmol/L solution or homogeneous suspension. The solution was diluted with PBS (−) in DMSO to a final concentration of 0.1, 1, 10, 20, 40, 60, 80, 100 μmol/L.
# (§4) Gossypol was used as control solution, prepared under the same condition.
# Cell culture: adherent growth Tumor cells were cultured in 1640 medium containing 10% inactivated neonatal bovine serum and penicillin, streptomycin (1 million U/L), placed in carbon dioxide incubator at 37° C., 5% CO2, and saturated humidity. Cells were treated serially passaged 2-3 times. The first culture was washed with PBS 2 times, and digested with trypsin. Fresh culture medium was added evenly, cells were adjusted to a appropriate concentration and transferred into a new culture flask. […]
# Experimental Principle: Living cells mitochondria in the dehydrogenase can reduce yellow MTT to water-insoluble blue-violet product MT (MTT formazan), deposited in the cells. […] DMSO can dissolve blue violet crystals, and the color depth is proportional to the amount contained, so the absorbance measured by the microplate reader can reflect the cell viability.
# Methods: The exponential phase cells were digested and counted and seeded in 96-well plates at a density of 2×10^4/mL at 100 μl per well. […] After 48 hours, the supernatant was discarded, and 100 μl of MTT ((2-(4,5-dimethyl-2-thiazolyl)-3,5-diphenyl-2H-tetrazole hydrobromide) (1 mg/mL) was added to each well. After another 4 hours, the supernatant was discarded, and 100 μl of DMSO was added to each well. After mixing, the absorbance was measured at 570 nm using a microplate reader. An IC50 calculation software was used to determine the half inhibitory concentration (IC50).
# [2] = tested on: human gastric cancer cells (SGC-7901); assay: tumor cell proliferation inhibition test, MTT method, SGC-7901; type: cell-based; conditions: SGC-7901 cells, 48 hours treatment, read-out: Half Inhibitory Concentration IC50 SGC-7901
# Protocol: as §1, §2, §3, §4
# (§5) Cell culture: adherent growth Tumor cells were cultured in 1640 medium containing 10% inactivated neonatal bovine serum and penicillin, streptomycin (1 million U/L), placed in carbon dioxide incubator at 37° C., 5% CO2, and saturated humidity. Cells were treated serially passaged 2-3 times. The first culture was washed with PBS 2 times, and digested with trypsin. Fresh culture medium was added evenly, cells were adjusted to a appropriate concentration and transferred into a new culture flask. Cell in an exponential phase were chosen for the tests.
# (§6) Experimental Principle: Living cells mitochondria in the dehydrogenase can reduce yellow MTT to water-insoluble blue-violet product MT (MTT formazan), deposited in the cells. The amount of production is proportional to the number of living cells. […] DMSO can dissolve blue violet crystals, and the color depth is proportional to the amount contained, so the absorbance measured by the microplate reader can reflect the cell viability.
# (§7) Methods: The exponential phase cells were digested and counted and seeded in 96-well plates at a density of 2×10^4/mL at 100 μl per well. After 24 hours of incubation, the cells to be tested were treated with 0.1, 1, 10, 20, 40, 60, 80, 100 μmol/L of the compounds. Each experimental group had 5 wells in each concentration, and the culture medium containing 0.4% DMSO was used as control. After 48 hours, the supernatant was discarded, and 100 μl of MTT ((2-(4,5-dimethyl-2-thiazolyl)-3,5-diphenyl-2H-tetrazole hydrobromide) (1 mg/mL) was added to each well. After another 4 hours, the supernatant was discarded, and 100 μl of DMSO was added to each well. After mixing, the absorbance was measured at 570 nm using a microplate reader. An IC50 calculation software was used to determine the half inhibitory concentration (IC50).
# [3] = tested on: human lung cancer cells (A-549); assay: tumor cell proliferation inhibition test, MTT method, A-549; type: cell-based; conditions: A549 cells, 48 hours treatment, read-out: Half Inhibitory Concentration IC50 A549
# Protocol: as §1, §2, §3, §4, §5, §6, §7
# [4] = tested on: human hepatoma cells (HepG2); assay: tumor cell proliferation inhibition test, MTT method, HepG2; type: cell-based; conditions: 48 hours treatment, read-out: Half Inhibitory Concentration IC50 HepG2
# Protocol: as §1, §2, §3, §4, §5, §6, §7
SMILES,antitumor activities (in words) [1],IC50 [2],IC50 [3],IC50 [4],melting point
"Cc1cc2c(C(C)C)c(O)c(O)c(/C=N/N=C3\C(=O)N(C)c4ccccc43)c2c(O)c1-c1c(C)cc2c(C(C)C)c(O)c(O)c(/C=N/N=C3/C(=O)N(C)c4ccccc43)c2c1O [Compound 3, (3Z,3′E)-3,3′-(((1E, 1′E)-(1,1′,6,6′,7,7′-hexahydroxy-5,5′-diisopropyl-3,3′-dimethyl-[2,2′-binaphthalene]-8,8′-diyl)bis(methanylylidene))bis(hydrazine-2,1-diylidene))bis(1-methylindolin-2-one)]",excellent antitumor activities,16.6 ± 1.46 µM,7.87 ± 0.91 µM,8.67 ± 0.74 µM,–
"Cc1cc2c(C(C)C)c(O)c(O)c(/C=N/N=C3\C(=O)N(C)c4ccc(Cl)cc43)c2c(O)c1-c1c(C)cc2c(C(C)C)c(O)c(O)c(/C=N/N=C3/C(=O)N(C)c4ccc(Cl)cc43)c2c1O [Compound 4, (3Z,3′E)-3,3′-(((1E, 1′E)-(1,1′,6,6′,7,7′-hexahydroxy-5,5′-diisopropyl-3,3′-dimethyl-[2,2′-binaphthalene]-8,8′-diyl)bis(methanylylidene))bis(hydrazine-2,1-diylidene))bis(5-chloro-1-methylindolin-2-one)]",–,> 100 µM,> 100 µM,> 100 µM,204.3 °C
"Cc1cc2c(C(C)C)c(O)c(O)c(/C=N/N=C3\C(=O)N(Cc4ccccc4)c4ccccc43)c2c(O)c1-c1c(C)cc2c(C(C)C)c(O)c(O)c(/C=N/N=C3/C(=O)N(Cc4ccccc4)c4ccccc43)c2c1O [Compound 8, (3Z,3′E)-3,3′-(((1E, 1′E)-(1,1′,6,6′,7,7′-hexahydroxy-5,5′-diisopropyl-3,3′-dimethyl-[2,2′-binaphthalene]-8,8′-diyl)bis(methanylylidene))bis(hydrazine-2,1-diylidene))bis(1-benzylindolin-2-one)]",–,88.8 ± 3.02 µM,> 100 µM,> 100 µM,219.9 °C
"Cc1cc2c(C(C)C)c(O)c(O)c(/C=N/N=C3\C(=O)N(C(C)C)c4ccc(Cl)cc43)c2c(O)c1-c1c(C)cc2c(C(C)C)c(O)c(O)c(/C=N/N=C3/C(=O)N(C(C)C)c4ccc(Cl)cc43)c2c1O [Compound 6, (3Z,3′E)-3,3′-(((1E,1′E)-(1,1′,6,6′,7,7′-hexahydroxy-5,5′-diisopropyl-3,3′-dimethyl-[2,2′-binaphthalene]-8,8′-diyl)bis(methanylylidene))bis(hydrazine-2,1-diylidene))bis(5-chloro-1-isopropylindolin-2-one)]",–,> 100 µM,66.5 ± 2.53 µM,> 100 µM,216.3 °C
"Cc1cc2c(C(C)C)c(O)c(O)c(/C=N/N=C3\C(=O)Nc4ccc(Cl)cc43)c2c(O)c1-c1c(C)cc2c(C(C)C)c(O)c(O)c(/C=N/N=C3/C(=O)Nc4ccc(Cl)cc43)c2c1O [Compound 2, (3Z,3′E)-3,3′-(((1E,1′E)-(1,1′,6,6′,7,7′-hexahydroxy-5,5′-diisopropyl-3,3′-dimethyl-[2,2′-binaphthalene]-8,8′-diyl)bis(methanylylidene))bis(hydrazine-2,1-diylidene))bis(5-chloroindolin-2-one)]",–,> 100 µM,68.3 ± 2.15 µM,29.4 ± 2.1 µM,190.7 °C
"CCN1C(=O)/C(=N\N=C\c2c(O)c(O)c(C(C)C)c3cc(C)c(-c4c(C)cc5c(C(C)C)c(O)c(O)c(/C=N/N=C6/C(=O)N(CC)c7ccc(Cl)cc76)c5c4O)c(O)c23)c2cc(Cl)ccc21 [Compound 5, (3Z,3′E)-3,3′-(((1E, 1′E)-(1,1′,6,6′,7,7′-hexahydroxy-5,5′-diisopropyl-3,3′-dimethyl-[2,2′-binaphthalene]-8,8′-diyl)bis(methanylylidene))bis(hydrazine-2,1-diylidene))bis(5-chloro-1-ethylindolin-2-one)]",good activities,13.7 ± 1.11 µM,19.3 ± 1.62 µM,8.92 ± 0.59 µM,–
"Cc1ccc2c(c1)/C(=N/N=C/c1c(O)c(O)c(C(C)C)c3cc(C)c(-c4c(C)cc5c(C(C)C)c(O)c(O)c(/C=N/N=C6/C(=O)Nc7ccc(C)cc76)c5c4O)c(O)c13)C(=O)N2 [Compound 1, (3Z,3′E)-3,3′-(((1E,1′E)-(1,1′,6,6′,7,7′-hexahydroxy-5,5′-diisopropyl-3,3′-dimethyl-[2,2′-binaphthalene]-8,8′-diyl)bis(methanylylidene))bis(hydrazine-2,1-diylidene))bis(5-methylindolin-2-one)]",–,> 100 µM,> 100 µM,> 100 µM,187.5 °C
"Cc1cc2c(C(C)C)c(O)c(O)c(/C=N/N=C3\C(=O)N(Cc4ccccc4)c4ccc(Cl)cc43)c2c(O)c1-c1c(C)cc2c(C(C)C)c(O)c(O)c(/C=N/N=C3/C(=O)N(Cc4ccccc4)c4ccc(Cl)cc43)c2c1O [Compound 7, (3Z,3′E)-3,3′-(((1E, 1′E)-(1,1′,6,6′,7,7′-hexahydroxy-5,5′-diisopropyl-3,3′-dimethyl-[2,2′-binaphthalene]-8,8′-diyl)bis(methanylylidene))bis(hydrazine-2,1-diylidene))bis(1-benzyl-5-chloroindolin-2-one)]",good activities,12.5 ± 1.93 µM,16.3 ± 1.21 µM,14.7 ± 1.12 µM,–
